# Reference: patent US20070049585A1, “BENZAMIDE AND BENZOATE ANTI-HIV COMPOUNDS” (priority 2004, published 2007)
# “Also recorded” adds a separate entry of the source. Where two headings read alike, the source gives them in different places.
# Experiments:
# HIV-1 IIIB = assay: AV-Finder-HIV Drug Discovery Assay: inhibition of HIV-1 IIIB replication in HeLa indicator cells (GFP fluorescence); format: cell-based
# Source text: In order to study the viral replication in vitro, the GenPhar (Mt. Pleasant, S.C.) AV-Finder™-HIV Drug Discovery Assay was used, that consists of two components: (1) a cloned, continuous-passage HeLa cell line containing an HIV-1 tat-activated molecular switch and a Green Fluorescent Protein reporter gene and (2) a recombinant adenovirus (rAd) vector containing the genes for all three of the HIV-1 receptor/co-receptors (CD4, CXCR4, and CCR5) to transduce into HeLa cells and convert them into highly susceptible HIV-1 indicator cells for use in the assay. The indicator cells over-express the HIV-1 receptor genes and are readily infected with any HIV-1 strain or isolate. […] Infected cells fluoresce brightly so that the inhibition of virus replication by potential antiviral drugs can be readily detected and quantified using standard laboratory plate reader technology.
# (§1) Detector plates are set up at day 1 by adding HeLa cells (3000/well) to the adenovirus AD-3R in DMEM containing CCS in 96-well plates and to incubate at 37° C. under 95% humidity and 5% CO2 for 2 days. […] At day 4, the medium was replaced by fresh medium containing the corresponding concentration of the compounds of interest. The infectivity was assessed by measuring the fluorescence on each well at day 7 ([…]). […] At day 5, the medium was replaced by fresh medium containing the corresponding concentration of compounds of interest and the infectivity was assessed by measuring the fluorescence on each well at day 8. Results are expressed as percentage of inhibition of the viral replication.
# Procaine HCl was used either alone dissolved in water (SP01) or in an Anticort-like formulation (SP01A) containing zinc sulfate heptahydrate and ascorbic acid at the ratio of about 27-107/1/1.3-2.0 (for example 200 mg procaine HCl with 7.5 mg of zinc sulfate heptahydrate and 12.5 mg of ascorbic acid; Xu, J. et al. J Pharmacol. Exper. Ther. 2003 307:1148-1157) (Samaritan Pharmaceuticals).
# HeLa cells = assay: MTT cytotoxicity assay (mitochondrial integrity); format: cell-based, human
# Experimental: Following the above described cell treatment protocol, the levels of cellular 3-(4,5-dimethylthiazol-2-yl)-2,5-diphenyl tetrazolium bromide (MTT) reduction, a measure of mitochondrial integrity, were determined in order to examine whether the compounds tested were cytotoxic.
# HIV MDR 769 strain = assay: Inhibition of multi-drug resistant HIV MDR 769 strain replication in HeLa cells, without pre-medication; format: cell-based
# Source text: In order to study the viral replication in vitro, the GenPhar (Mt. Pleasant, S.C.) AV-Finder™-HIV Drug Discovery Assay was used, that consists of two components: (1) a cloned, continuous-passage HeLa cell line containing an HIV-1 tat-activated molecular switch and a Green Fluorescent Protein reporter gene and (2) a recombinant adenovirus (rAd) vector containing the genes for all three of the HIV-1 receptor/co-receptors (CD4, CXCR4, and CCR5) to transduce into HeLa cells and convert them into highly susceptible HIV-1 indicator cells for use in the assay. The indicator cells over-express the HIV-1 receptor genes and are readily infected with any HIV-1 strain or isolate. All HIV-1 strains tested thus far, regardless of co-receptor preference, and all subtypes or clades of HIV-1 will infect these indicator cells. Infected cells fluoresce brightly so that the inhibition of virus replication by potential antiviral drugs can be readily detected and quantified using standard laboratory plate reader technology.
# as §1
compound,measurement,setting,value
O=c1[nH]cnc2c1ncn2[C@H]1CC[C@@H](CO)O1 [ddI],inhibition of viral replication (strongest inhibition),"HIV-1 IIIB; no pre-medication, 0.01 μM",26.37±26.11%
same,IC50,HeLa cells,89 µM
"CCN(CC)CCOC(=O)c1ccc(N)cc1 [SP01, 4-aminobenzoic acid 2-(diethylamino)ethyl ester]",inhibition of HIV replication,"HIV-1 IIIB; 48 hours pretreatment, all concentrations tested",75%
same,"efficacy in reducing HIV-1 IIIB replication compared with AZT, ddI or 3TC",HIV-1 IIIB; human cells,"efficacy higher than AZT, ddI or 3TC"
same,efficacy of inhibition of HIV-1 IIIB viral replication compared with 3TC,"HIV-1 IIIB; no pre-medication, concentrations up to 0.1 μM",higher efficacy than the classical antiviral agent 3TC
same,cell toxicity by MTT cytotoxicity assay,"HeLa cells; all concentrations tested, up to 100 μM",devoid of cell toxicity
same,effect on HIV MDR 769 strain replication,HIV MDR 769 strain,effectively blocked
same,effect on HIV MDR 769 strain replication,HIV MDR 769 strain; concentrations higher than 1 nM,not effective
same,inhibition of HIV MDR 769 viral replication,HIV MDR 769 strain; concentrations up to 1 nM,75%
"CCN(CC)CCNC(=O)c1ccc(N)cc1 [SP100, procainamide]",effect on HIV MDR 769 strain replication,HIV MDR 769 strain,effectively blocked
Nc1ccn([C@@H]2CS[C@H](CO)O2)c(=O)n1 [3TC],inhibition of viral replication reached (maximal),"HIV-1 IIIB; no pre-medication, dose-dependent, maximal concentrations",90%
Cc1cn([C@H]2C[C@H](N=[N+]=[N-])[C@@H](CO)O2)c(=O)[nH]c1=O [AZT],inhibition of the replication at the peak concentration,"HIV-1 IIIB; 24 hours pre-medication, 30 pM",< 30%
same,IC50,HIV-1 IIIB; 48 hours pretreatment,0.03 µM
same,IC50,HeLa cells,161 µM
same,effect on HIV MDR 769 strain replication,HIV MDR 769 strain,ineffective; also recorded: not effective
